The values that follow are results of earlier work, collected in patent publication US20240252403A1, “SKIN CARE COMPOSITION FOR APPLICATION TO SKIN” (COSMED PHARMACEUTICAL CO., LTD., priority 2021, published 2024).

`Cc1ncc(CO)c(CO)c1O.Cl` [pyridoxine hydrochloride]: the saturation solubility is given as 22.0 g/100 g.

Take `NCCS(=O)(=O)O` [taurine]: the saturation solubility is reported as 7.9 g/100 g.

In the case of `N[C@@H](CCC(=O)N[C@@H](CS)C(=O)NCC(=O)O)C(=O)O` [glutathione], the saturation solubility is given as 13.0 g/100 g.
